Results reported in patent publication US20220296573A1, “NOVEL COMPOUNDS AND PHARMACEUTICAL COMPOSITIONS THEREOF FOR THE TREATMENT OF INFLAMMATORY DISORDERS” (Galapagos NV, priority 2019, published 2022).
≈ marks a conversion by molar mass, not a printed value.

Key:
human IRAK-4 = target: T1, human IRAK-4 (Homo sapiens, UniProt Q9NWZ3); assay: Phosphorylation IC50 determination for human IRAK-4 (ADP-Glo Kinase Assay); conditions: human IRAK-4, substrate RIP140, Km ATP; read-out: IRAK4 ADPglo biochemical assay IC50
T1 construct: purchased Carna Biosciences 09 145
T1 sequence (Q9NWZ3 1-460): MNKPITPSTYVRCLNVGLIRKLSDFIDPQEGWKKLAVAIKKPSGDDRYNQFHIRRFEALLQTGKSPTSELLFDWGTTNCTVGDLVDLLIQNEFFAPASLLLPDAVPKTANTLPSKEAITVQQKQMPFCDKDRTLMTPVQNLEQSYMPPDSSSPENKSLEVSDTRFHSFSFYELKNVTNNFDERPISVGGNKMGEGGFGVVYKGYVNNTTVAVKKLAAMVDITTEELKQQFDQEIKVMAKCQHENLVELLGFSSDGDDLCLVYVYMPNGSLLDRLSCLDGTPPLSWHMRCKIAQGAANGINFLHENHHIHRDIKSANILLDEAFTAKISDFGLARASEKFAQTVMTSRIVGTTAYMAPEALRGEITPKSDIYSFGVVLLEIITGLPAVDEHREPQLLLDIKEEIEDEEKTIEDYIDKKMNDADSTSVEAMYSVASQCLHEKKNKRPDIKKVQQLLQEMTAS
Description: The phosphorylation of the substrate RIP140 (SEQ ID1) by IRAK4 at Km ATP was detected with the ADP-Glo Kinase Assay (Promega, Cat #V9103), a luminescent kinase assay which measures the ADP formed from a kinase reaction. (Zegzouti et al. 2009) In a second step the kinase reaction was terminated and all the remaining ATP was depleted. In a final step the ADP was converted into ATP and this newly synthesized ATP was measured by using a luciferase/luciferin reaction with a luminescent reader. The luminescent signal positively correlated with kinase activity, in particular kinase inhibition giving a decrease of the luminescent signal.
For the semi-automated assay, the positive control (100% inhibition) was prepared by diluting 10 mM staurosporine stock mixture (20 μL) in water (3.8 mL) and DMSO (180 μL), thus resulting in a […] staurosporine solution at 1% DMSO (final concentration after further dilution in the kinase reaction).
For the automated assay, no pre-dilution of the 10 mM staurosporine stock was made. 10 mM staurosporine was spotted directly in the assay plate using acoustic dispensing and complemented with DMSO to result in a similar final concentration as mentioned above.
For the semi-automated assay, the negative control (0% inhibition) was prepared by mixing water (3.8 mL) and DMSO (200 μL) resulting in a final concentration of 1% DMSO after further dilution in the kinase reaction. For the automated assay no pre-dilution of DMSO was done. 100% DMSO was spotted directly on the assay plate.
The assay buffer solution was prepared at a concentration corresponding to 5 fold the final (most diluted) assay concentration by mixing a solution of 125 mM TRIS pH 7.5+0.05% Triton X-100+2.5 mM EGTA (5.27 mL) with 1M mgCl2 (72 μL), 1M DTT (57.6 μL), and 200 mM MnCl2 (360 μL).
For example, for the semi-automated method, the enzyme-substrate mixture was prepared by mixing water (3999 μL), assay buffer solution (1380 μL), 1 mM RIP140 (138 μL—SEQ ID1), and 200 ng/mL IRAK 4 (3.45 μL Carna Biosciences, 09 145).
For semi-automated method, the ATP mixture was prepared at a concentration corresponding to 2.5 fold the final (most diluted) assay concentration of the semi-automated method and 1.5 fold the final (most diluted) assay concentration of the automated method. For example, for the semi-automated method, the ATP mixture was prepared by mixing water (4126 μL), assay buffer solution (1380 μL), and 10 mM ATP (13.80 μL).
The assay are performed either in a semi-automated or fully automated manner. The assay volume and the incubation time of the ADP detection were different accordingly the method used.
The compounds were prepared as a serial dilution of 10 point dose responses with 1/5 dilution steps in 100% DMSO starting from 2 mM highest concentration, diluted 1/20 in water. 1 μL was transferred dry to the assay plates.
On each assay plate 32 wells of each control (positive & negative) were added, followed by 2 μL enzyme-substrate mixture.
The reaction was started by adding 2 μL diluted ATP (final concentration Km ATP) on the assay plates. Plates were centrifuged for a few seconds at 1000 rpm followed by an incubation at r.t. for 120 min.
The reactions were stopped and the unconsumed ATP was depleted by adding 5 μL ADP-glo Reagent (Promega, Cat #V9103) to the reaction. The plates were quickly centrifuged at 1000 rpm and incubated at r.t. for 40 min corresponding to full ATP depletion.
The ADP was converted back to ATP and luciferase and luciferin were introduced to detect ATP by adding 10 μL kinase detection reagent (Promega, Cat #V9103) to the reaction. The plates were centrifuged for a few seconds at 1000 rpm and incubated at r.t. for a further 30 min.
Luminescent read out was performed on an Envision luminescent reader (Perkin Elmer).
For the automated assay, the compounds were prepared as a serial dilution of 10 point dose responses with 1/5 dilution steps in 100% DMSO starting from 2 mM highest concentration. […]

Human Hepatocyte = assay: Metabolic stability in human hepatocytes; assay type: in vitro ADME; conditions: human cryopreserved hepatocytes, 1 μM
Description: (§1) The aim of this assay is to determine the metabolic stability of the compound in hepatocytes (cryopreserved) of different species. Low hepatocyte stability may result in the formation of unwanted metabolites, high clearance, and therefore is not desirable.
(§2) A 10 mM stock solution of test compound in DMSO was first diluted in DMSO to 3 mM, and then in modified Krebs-Henseleit buffer (Sigma, K3753) to 5 μM. This compound dilution was added to a suspension of pooled cryopreserved hepatocytes (BioreclamationIVT) at 37° C. under gentle shaking.
(§3) Final reaction conditions were: 1 μM of test compound, 0.03% DMSO, 0.5 million viable hepatocytes/mL, and 75 μL incubation volume.
(§4) Testosterone (1 μM) and 7-hydroxycoumarin (1 μM) were used, respectively as phase I and phase II metabolic reaction controls.
(§5) After 0, 10, 20, 45, 90, 120 and 180 min of incubation, the reaction was terminated with 225 μL of MeCN:MeOH (2:1) containing 100 ng/mL of diclofenac as analytical internal standard. Samples were mixed, centrifuged and the supernatant analyzed by LC-MS/MS.
(§6) The instrument responses (ratios of test compound and internal standard peak areas) were referenced to the zero time point samples (considered as 100%) in order to determine the percentage of compound remaining.
(§7) Plots of percentage compound remaining were used to determine the intrinsic clearance in the hepatocyte incubations using the following equations:
(§8) Scaled Clint [L/h/kg]=Clint [μL/min/10^6 cells]*#(10) cells/g liver*60*(1/10^6) Scaled Clint unbound [L/h/kg]=Clint [L/h/kg]/Fu,inc where: fu,inc equals hepatocyte binding, derived from microsomal binding (fu,mic) by following equation: […]

Mouse Hepatocyte = assay: Metabolic stability in mouse hepatocytes; assay type: in vitro ADME; conditions: mouse cryopreserved hepatocytes, 1 μM
Description: as §1, §2, §3, §4, §5, §6, §7, §8

Thermodynamic solubility = assay type: physicochemical; conditions: Fasted State Simulated Intestine Fluid (FaSSIF), 37 °C, fassif, thermodynamic from solid, Fasted State Simulated Intestine Fluid, read-out: Tsol FaSSIF
Description: In a 8 mL glass vial, 1-2 mg of dry matter of compound were added and stirred with the suitable buffers (Fed State Simulated Intestine Fluid, FeSSIF, or Fasted State Simulated Intestine Fluid, FaSSIF, or Fasted State Simulated Gastric Fluid, FaSSGF, or phosphate buffer pH 7.4) for 24 h at r.t. (for the buffer pH 7.4) or 37° C. (for the GI fluids). The concentration of the mixture was 1 mg/mL.
A volume of 1000 μL were sampled, centrifuged for 10 min at 10 000 rpm and 500 μL of the supernatant were filtered on captiva plate. The samples are diluted in duplicates in DMSO (F100 and F10). Then, a final dilution (F100) in 80/20 H2O/MeCN containing the internal standard (warfarin) was used for LCMS-MS analysis.
A standard curve was made starting from a 40,000 ng/mL stock in DMSO, freshly prepared from dry matter. Then, successive concentrations at 15,000, 11,000, 6,000, 2,500, 1,000, 375, 150 and 75 ng/mL in DMSO were prepared.
Three quality control samples were made: one of 10,000, 1,500 and 200 ng/mL in DMSO, also starting from the DMSO working stock solution at 40,000 ng/mL.
The standard curve and quality controls were diluted a F100 in 80/20 H2O/MeCN (with internal standard) and analyzed on LC/MS-MS (API4000 or API5500).
The samples were analyzed on LC-MS with a flow rate of 0.6 mL/min. The mobile phase A was 0.1% formic acid in water and the mobile phase B was 0.1% formic acid in 90% MeCN and 10% of water. The sample was run under positive or negative ion spray on Pursuit C18—5 μm (2.0×20 mm) column, from Agilent.
The ratio analyte/internal standard peaks areas of the standard curve were plotted in a graph and a linear or polynomial of the second order equation was used to calculate the unknown concentrations of the test compound.
Solubility values were reported in μM and g/mL.

IC50 (human IRAK-4)	Human Hepatocyte stability (Perc. remaining at 90 min) (Human Hepatocyte)	Mouse Hepatocyte stability (Perc. remaining at 90 min) (Mouse Hepatocyte)	solubility thermodynamic at 24 h (Thermodynamic solubility)	Compound
0.1 to 5 nM	85.9 Perc.	103.55 Perc.		COc1cc2nc(C3COCCO3)cn2cc1NC(=O)c1cccc(C(F)(F)F)n1 (stereo not drawn) [Compound 4, N-[2-(1,4-dioxan-2-yl)-7-methoxy-imidazo[1,2-a]pyridin-6-yl]-6-(trifluoromethyl)pyridine-2-carboxamide]
10 to 50 nM	99.95 Perc.		86.2 µg/mL (≈ 224 µM)	COc1cc2nc(C3COCCO3)cn2cc1NC(=O)c1cccn(C)c1=O (stereo not drawn) [Compound 10, N-(2-(1,4-dioxan-2-yl)-7-methoxyimidazo[1,2-a]pyridin-6-yl)-1-methyl-2-oxo-1,2-dihydropyridine-3-carboxamide]
0.1 to 5 nM	93.85 Perc.	72.8 Perc.		CC(F)(F)c1cccc(C(=O)Nc2cn3cc(C4COCCO4)nc3cc2C(N)=O)n1 (stereo not drawn) [Compound 13, 6-(6-(1,1-difluoroethyl)picolinamido)-2-(1,4-dioxan-2-yl)imidazo[1,2-a]pyridine-7-carboxamide]
5 to 10 nM	85.35 Perc.	75.1 Perc.		CCOc1c(NC(=O)c2cccn(C3CC3)c2=O)cn2cc(C3CCOCC3)nc2c1F [Compound 12, 1-cyclopropyl-N-(7-ethoxy-8-fluoro-2-(tetrahydro-2H-pyran-4-yl)imidazo[1,2-a]pyridin-6-yl)-2-oxo-1,2-dihydropyridine-3-carboxamide]
0.1 to 5 nM	100.05 Perc.	67.65 Perc.		CNC(=O)c1cc2nc(C3COCCO3)cn2cc1NC(=O)c1cccc(C(C)(F)F)n1 (stereo not drawn) [Compound 14, 6-(6-(1,1-difluoroethyl)picolinamido)-2-(1,4-dioxan-2-yl)-N-methylimidazo[1,2-a]pyridine-7-carboxamide]
10 to 50 nM	56.6 Perc.	76.5 Perc.		O=C(Nc1cn2cc(C3CCOCC3)nc2c(F)c1OCC(F)F)c1cccn(C2CC2)c1=O [Compound 19, 1-cyclopropyl-N-(7-(2,2-difluoroethoxy)-8-fluoro-2-(tetrahydro-2H-pyran-4-yl)imidazo[1,2-a]pyridin-6-yl)-2-oxo-1,2-dihydropyridine-3-carboxamide]
